The target of one data set is T1, folate receptor (Homo sapiens, UniProt P15328).
T1 construct: determined in cultured KB-31 cells (nasopharyngeal epidermal carcinoma cell line) overexpressing the folate receptor using ^3H-folic acid; endogenous in cells; host or cells: KB-31 cells
As to conditions: KB-31 cells, 3H-folic acid; cited from earlier work.

In data set [1] the test system is porcine renal LLCPK-1 cells stably expressing GFP-tagged α-tubulin. Put plainly: microtubule dynamics in living cells (plus ends of GFP-tagged α-tubulin MTs). It is filed as cell-based. The settings on record: for Rate, Growing: individual microtubules in interphase cells. As for the experimental part: FIG. 6 is a series of photographs showing how Targetin increases the pause-time of cellular MTs. A gallery of video frames, 6 seconds apart, of plus ends of several microtubules in control and Targetin treated cells.
To determine if Targetin affects MT dynamics in living cells, the life history of the plus ends of Targetin-treated cellular MTs was evaluated, resolvable individually at the cell periphery of porcine renal LLCPK-1 cells stably expressing green fluorescent protein (GFP)-tagged α-tubulin. These cells were treated either with Targetin in DMSO or DMSO alone. […] As expected in control cells, MTs alternated between phases of growth and shortening interrupted occasionally by a state of attenuated dynamic activity (pause), determined by noting the position of the plus ends over time. The control panels show different positions of MT plus ends in a 24 second time period (arrows represent fixed pixel position for reference).

Data set [2] concerns variety of cancer cell types with varying degrees of folate receptor expression. Put plainly: sulforhodamine B cellular proliferation assay. It counts as cell-based. As to conditions: irrespective of folate receptor status. On the procedure:
Our next goal was to determine whether differences in folate receptor overexpression affected cytotoxicity in response to Targetin. To this end, the ability of Targetin to inhibit cellular proliferation of a variety of cancer cell types with varying degrees of folate receptor expression was evaluated using a sulforhodamine B assay to determine total protein content (FIG. 7).

Data set [3] relates to tubulin. The data set is described as follows: assembly of tubulin subunits into microtubules in vitro (light scattering). It is filed as biochemical. The settings on record: for effect on tubulin polymerization: 25 μM. On the procedure: (§1) FIG. 5 is a picture showing the fluorescence quenching of tubulin by Targetin. Panel A, quenching of tubulin fluorescence emission by Targetin in a concentration-dependent manner (▪) control, 10 μM (●), 20 μM (▴), 30 μM (▾), 50 μM ( ? ), 75 μM ( ? ) and 100 μM (♦) Panel B, double-reciprocal plot for Targetin binding to tubulin. […] Equivalent amount of solvent DMSO was used as a negative control.
(§2) However, at a four-fold concentration of Targetin (100 μM), it inhibited the rate and extent of tubulin polymerization by ˜17% (FIG. 5C).

Data set [4] has as its system tubulin. Put plainly: tubulin-fluorescence quenching titration. As to conditions: 10-100 μM, compared with parent noscapine. It counts as binding. On the procedure: as §1, §2
For data set [5], the system named is FR-α overexpressing cancer cells (SK-OV3 human ovarian carcinoma cells, U87 glioblastoma cells). Put plainly: cell viability using Trypan blue (adherent live cells), 48 hours. It counts as cell-based. As for the experimental part: Live cells remain adherent and exclude Trypan blue (although a few late stage dying cells that remain adherent are Trypan blue-positive, and are not counted as live adherent). The numbers of adherent live cells are quantified in panels B and D respectively.
An equal number of two types of cells, (SK-OV3 human ovarian carcinoma cells and U87 glioblastoma cells) were plated in 15 tissue culture dishes. Plates were divided into five groups of triplicates.
FIGS. 8A & B show phase images and quantification of cell viability using Trypan blue in SK-OV3 cells. FIGS. 8C & D show parallel data for human glioblastoma U87 cells. Data for two other FR-α cell lines are similar (not shown).

The conditions of data set [6]: oral 300 mg/kg body weight to 600 mg/kg; cited from earlier work.
The test system of data set [7] is tubulin. The settings on record: cited from earlier work.
Data set [8] relates to cells expressing green fluorescent protein (GFP)-tagged α-tubulin. The settings on record: 30 second time period; cited from earlier work.
Data set [9] deals with melanoma, glioblastoma, ovarian, breast carcinoma, and prostate cancer cells. As to conditions: many cancer cell types; cited from earlier work.

T1 sequence (P15328 25-234): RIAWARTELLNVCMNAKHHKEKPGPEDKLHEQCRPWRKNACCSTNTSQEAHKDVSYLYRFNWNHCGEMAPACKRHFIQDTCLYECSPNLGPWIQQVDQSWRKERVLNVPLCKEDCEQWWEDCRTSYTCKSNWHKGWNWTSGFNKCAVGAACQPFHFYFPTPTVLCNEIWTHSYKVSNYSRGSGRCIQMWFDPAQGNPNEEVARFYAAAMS

Regarding `Nc1nc(O)c2nc(CNc3ccc(C(=O)N[C@@H](CCC(=O)O)C(=O)O)cc3)cnc2n1` [folic acid], the “in vitro binding affinity” value at folate receptor is 41 nmol/L.
For the compound Noscapine-folate [Targetin], in [1] (Targetin 5 μM), the Average pause worked out at 10.25 ± 1.25 s; the Dynamicity was 4.52 ± 1.21 μm/min; the “Percent of total time, Attenuation” value amounted to 32.5%; the “Percent of total time, Growing” value came to 35.2%. Also, in [1] (Targetin 5 μM), the “Percent of total time, Shortening” value amounted to 28.5%; the “Rate, Shortening” value was 11.78 ± 1.21 μm/min; the “Transition frequency, Catastrophe” value stood at 0.079 ± 0.07 s⁻¹; the “Transition frequency, Rescue” value was found to be 0.07 ± 0.012 s⁻¹. The “Rate, Growing” value in [1] (Targetin 5 μM) was found to be 8.72 ± 1.32 μm/min. In [1] (Targetin 10 μM), the Average pause was found to be 14.52 ± 2.36 s; the Dynamicity was determined as 2.75 ± 1.05 μm/min; the “Percent of total time, Attenuation” value turned out to be 44.8%; the “Percent of total time, Growing” value amounted to 24.3%. In addition, in [1] (Targetin 10 μM), the “Percent of total time, Shortening” value is 20.1%; the “Rate, Shortening” value was determined as 9.92 ± 1.25 μm/min; the “Transition frequency, Catastrophe” value worked out at 0.072 ± 0.05 s⁻¹; the “Transition frequency, Rescue” value is 0.059 ± 0.019 s⁻¹. Further, in data set [1] (Targetin 10 μM), the “Rate, Growing” value is recorded as 7.15 ± 0.56 μm/min. The “MT-binding and MT dynamics attenuating activity relative to noscapine” value in data set [1] (summary statement) is about 3 fold. The “potency in inhibiting cellular proliferation relative to noscapine” value in [2] is listed as “about 3 fold”. The “effect on tubulin polymerization” value in the data set on tubulin [3] was “did not inhibit tubulin polymerization”. In the data set with tubulin [3] (100 μM), the “inhibition of the rate and extent of tubulin polymerization” value is about 17%. Moreover, in the data set with tubulin [4], the “tubulin binding activity (quenching of tubulin fluorescence)” value is “does retain the tubulin binding activity”. The “effectiveness compared with noscapine (adherent live cells)” value in data set [5] (10 μM Targetin vs 25 μM noscapine, FR-α overexpressing cell lines) is given as “significantly more effective than noscapine”. Also, in [5] (50 μM folic acid + 10 μM Targetin, FR-α overexpressing cancer cells), the “effect of free folic acid on Targetin toxicity” value is given as “free folic acid mitigates the Targetin toxicity”.
In the case of `COc1ccc2c(c1OC)C(=O)O[C@@H]2[C@H]1c2c(cc3c(c2OC)OCO3)CCN1C` [Noscapine], in data set [6], the “drug bioavailability on doubling the oral dose” value is on record as “did not increase”. For the same compound, the “apparent stoichiometry of binding to tubulin” value in the data set on tubulin [7] is given as 0.95±0.02 noscapine molecule per tubulin dimer subunit. Besides, the “effect on tubulin polymerization” value with tubulin [3] is given as “did not inhibit tubulin polymerization”. The “MT dynamics (position of plus ends)” value in data set [8] is reported as “suppressed MT dynamics”. Moreover, the “effect on cell cycle and cell death” value in data set [9] is “brief mitotic pause followed by extensive apoptosis”.

(Values after US8426398B2 (Emory University, priority 2009, dated 2013).)
